Active and inactive are the calls of the source. The rule behind the calls is not given here.
What was measured:
MCF7 [1] = assay: Cytotoxicity against human MCF7 cells after 72 hrs by MTT assay; assay type: functional, cell-based; conditions: for IC50: MCF7, 72 h
HT-29 [2] = assay: Cytotoxicity against human HT-29 cells after 72 hrs by MTT assay; assay type: functional, cell-based; conditions: for IC50: HT-29, 72 h
P388 [3] = assay: Cytotoxicity against mouse P388 cells after 72 hrs by MTT assay; assay type: functional, cell-based; conditions: for IC50: P388, 72 h
A549 [4] = assay: Cytotoxicity against human A549 cells after 72 hrs by MTT assay; assay type: functional, cell-based; conditions: for IC50: A549, 72 h
[5] = Cytotoxicity against HLMEC cells after 72 hrs by SRB assay; assay type: cell-based, Homo sapiens; conditions: for IC50: Homo sapiens, HLMEC; for Activity: human, hlmec
P388 [6] = assay: Selectivity index, ratio of IC50 for HLMEC cells to IC50 for mouse P388 cells; assay type: functional
HT-29 [7] = assay: Selectivity index, ratio of IC50 for HLMEC cells to IC50 for human HT-29 cells; assay type: functional
A549 [8] = assay: Selectivity index, ratio of IC50 for HLMEC cells to IC50 for human A549 cells; assay type: functional
MCF7 [9] = assay: Selectivity index, ratio of IC50 for HLMEC cells to IC50 for human MCF7 cells; assay type: functional
HT-29 [10] = assay: Selectivity index, ratio of IC50 for mouse BALB/3T3 cells to IC50 for human HT-29 cells; assay type: functional
MCF7 [11] = assay: Selectivity index, ratio of IC50 for mouse BALB/3T3 cells to IC50 for human MCF7 cells; assay type: functional
BALB/3T3 = assay: Cytotoxicity against mouse BALB/3T3 cells after 72 hrs by SRB assay; assay type: cell-based; conditions: for IC50: Mus musculus, BALB/3T3, 72 h; for Activity: mouse, balb/3t3, 72 h
A549 [12] = assay: Selectivity index, ratio of IC50 for mouse BALB/3T3 cells to IC50 for human A549 cells; assay type: functional
P388 [13] = assay: Selectivity index, ratio of IC50 for mouse BALB/3T3 cells to IC50 for mouse P388 cells; assay type: functional

Row | SMILES | IC50 (MCF7 [1]) [µM] | IC50 (HT-29 [2]) [µM] | IC50 (P388 [3]) [µM] | IC50 (A549 [4]) [µM] | IC50 [5] [µM] | Ratio IC50 (P388 [6]) | Ratio IC50 (HT-29 [7]) | Ratio IC50 (A549 [8]) | Ratio IC50 (MCF7 [9]) | Ratio IC50 (HT-29 [10]) | Ratio IC50 (MCF7 [11]) | IC50 (BALB/3T3) [µM] | Ratio IC50 (A549 [12]) | Ratio IC50 (P388 [13]) | Activity (MCF7 [1]) | Activity (HT-29 [2]) | Activity (BALB/3T3) | Activity (P388 [3]) | Activity (A549 [4]) | Activity [5]
1 | CCCCN(CCCC)Cc1c(CC[C@@H](C)[C@H](O)[C@H](C)C(=O)[C@H](CC)[C@H]2O[C@](CC)([C@H]3CC[C@](O)(CC)[C@H](C)O3)C[C@@H]2C)ccc(C)c1O | 6.11 | 7.02 | 6.35 | 5.27 | 4.43 | 0.69 | 0.63 | 0.84 | 0.73 | – | – | – | – | – | – | – | – | – | – | –
2 | CC[C@@H](C(=O)[C@@H](C)[C@@H](O)[C@H](C)CCc1ccc(C)c(O)c1C(=O)O)[C@H]1O[C@](CC)([C@H]2CC[C@](O)(CC)[C@H](C)O2)C[C@@H]1C [LASALOCID] | 3.12 | 1.95 | 4.54 | 1.8 | 1.75 | 0.39 | 0.9 | 0.97 | 0.56 | 3.77 | 2.36 | 7.35 | 4.08 | 1.62 | – | – | – | – | – | –
3 | CC[C@@H](C(=O)[C@@H](C)[C@@H](O)[C@H](C)CCc1ccc(C)c(O)c1CN1CCOCC1)[C@H]1O[C@](CC)([C@H]2CC[C@](O)(CC)[C@H](C)O2)C[C@@H]1C | 2.08 | 5.74 | 3.23 | 6.81 | 4.86 | 1.5 | 0.85 | 0.71 | 2.33 | 2.5 | 6.89 | 14.3 | 2.1 | 4.44 | – | – | – | – | – | –
4 | CCCN(CCC)Cc1c(CC[C@@H](C)[C@H](O)[C@H](C)C(=O)[C@H](CC)[C@H]2O[C@](CC)([C@H]3CC[C@](O)(CC)[C@H](C)O3)C[C@@H]2C)ccc(C)c1O | 5.62 | 7.03 | 3.58 | 5.3 | 4.12 | 1.15 | 0.59 | 0.78 | 0.73 | 3.23 | 4.04 | 22.7 | 4.29 | 6.35 | – | – | – | – | – | –
5 | CCCCCCCCCCCCN(CCCCCCCCCCCC)Cc1c(CC[C@@H](C)[C@H](O)[C@H](C)C(=O)[C@H](CC)[C@H]2O[C@](CC)([C@H]3CC[C@](O)(CC)[C@H](C)O3)C[C@@H]2C)ccc(C)c1O | – | – | – | – | – | – | – | – | – | – | – | – | – | – | inactive | inactive | Non-toxic | inactive | inactive | Non-toxic
6 | CCCCCCCCN(CCCCCCCC)Cc1c(CC[C@@H](C)[C@H](O)[C@H](C)C(=O)[C@H](CC)[C@H]2O[C@](CC)([C@H]3CC[C@](O)(CC)[C@H](C)O3)C[C@@H]2C)ccc(C)c1O | – | – | – | – | – | – | – | – | – | – | – | – | – | – | inactive | inactive | Non-toxic | inactive | inactive | Non-toxic
7 | CC[C@@H](C(=O)[C@@H](C)[C@@H](O)[C@H](C)CCc1ccc(C)c(O)c1CN(Cc1ccccc1)Cc1ccccc1)[C@H]1O[C@](CC)([C@H]2CC[C@](O)(CC)[C@H](C)O2)C[C@@H]1C | 18.4 | 75.6 | 4.11 | 36.8 | 4.61 | 1.12 | 0.06 | 0.13 | 0.25 | 1.02 | 4.17 | 76.9 | 2.09 | 18.72 | – | – | – | – | – | –
8 | CC[C@@H](C(=O)[C@@H](C)[C@@H](O)[C@H](C)CCc1ccc(C)c(O)c1CN(C(C)C)C(C)C)[C@H]1O[C@](CC)([C@H]2CC[C@](O)(CC)[C@H](C)O2)C[C@@H]1C | 5.5 | 5.33 | 4.79 | 5.62 | 4.63 | 0.97 | 0.87 | 0.82 | 0.84 | 3.2 | 3.1 | 17.1 | 3.03 | 3.56 | – | – | – | – | – | –

Reference: ChEMBL document CHEMBL2417465, “One-pot synthesis and cytotoxicity studies of new Mannich base derivatives of polyether antibiotic--lasalocid acid” (Bioorg Med Chem Lett, 2013)
